pIC50: −log10 of the molar value. Converted amounts (≈) assume the structure as drawn. “And” between values parts separate entries of the source, which are not always exact repeats. Identical values can stand only once. Like-named read-outs stand apart in the source and are kept apart here.
Tests used:
[1] = tested on: C. albicans; test: MIC test, fungal growth inhibition; type: cell-based; conditions: in vitro
Method: (§1) The MIC test procedures conformed to the present protocol from the National Committee for Clinical Laboratory Standards (NCCLS), and were designed to provide basic antimicrobial data on compounds based on the MIC of the active component.
(§2) The test compounds were solubilized, diluted, and pipetted in duplicate into 10 mL sterile culture tubes and dried under vacuum.
(§3) Challenge organisms, specified were grown overnight at 37° C. in the appropriate medium (i.e., Mueller-Hinton Broth). These pure broth cultures were diluted 1:1,000 and 2.0 mL were added to the test compound tubes.
(§4) Appropriate media controls, challenge organism viability controls, and antibiotic control dilutions (i.e., ampicillin and nystatin), were prepared in the same manner as the test compounds and run against the challenge organisms.

[2] = tested on: M. flavescens; test: microbe, parasite or virus in culture; type: cell-based
[3] = tested on: S. aureus (MCR); test: microbe, parasite or virus in culture; type: cell-based; conditions: for Minimal Inhibitory Concentration (MIC), S. aureus (MCR): multiple values = two or more tests; for MIC: Staphylococcus aureus, read-out: Minimal Inhibitory Concentration (MIC), S. aureus (MCR), multiple values = two or more tests
[4] = tested on: A. niger; test: MIC test, fungal growth inhibition; type: cell-based; conditions: in vitro
Method: (§5) Antimicrobial Testing (P. aeruginosa, E. coli, B. subtilis, S. aureus, S. aureus (MCR), A. niger and M. flavescens.)
as §1, §2, §3, §4

[5] = molecular target: NAD synthetase (Bacillus subtilis, UniProt P08164); test: NAD synthetase coupled enzyme assay; type: biochemical; conditions: NAD synthetase 2.0 μg/mL; 0.1 mM NaAD; 0.2 mM ATP; pH 8.5
Sequence of NAD synthetase (P08164 whole entry): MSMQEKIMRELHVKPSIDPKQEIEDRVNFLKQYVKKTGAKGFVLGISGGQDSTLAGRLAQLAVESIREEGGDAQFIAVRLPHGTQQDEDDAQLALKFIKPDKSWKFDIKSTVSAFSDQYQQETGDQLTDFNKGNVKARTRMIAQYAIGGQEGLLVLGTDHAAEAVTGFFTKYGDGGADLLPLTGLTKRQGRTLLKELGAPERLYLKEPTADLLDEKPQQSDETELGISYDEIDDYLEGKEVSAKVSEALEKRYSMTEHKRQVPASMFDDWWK
Text: This Example illustrates the NAD synthetase enzyme inhibiting activity of some compounds of the present invention. [drawing 48] The coupled assay—production of NAD was monitored through conversion to NADH by alcohol dehydrogenase. [NADH] was monitored by 2 parallel methods: the change in absorbance at 340 nm, and fluorescence at 460 nm (excitation 320 nm). […] Controls were included for determining inhibitor background, precipitation, and ADH inhibition.

[6] = tested on: S. aureus; test: microbe, parasite or virus in culture; type: cell-based; conditions: multiple values = two or more tests
[7] = tested on: P aeruginosa; test: MIC test (NCCLS broth dilution), growth inhibition; type: cell-based; conditions: in vitro
Method: as §5, §2, §3, §4

[8] = tested on: E. coli; test: MIC test (NCCLS broth dilution), growth inhibition; type: cell-based; conditions: in vitro
Method: as §5, §2, §3, §4

[9] = tested on: B. subtilis; test: microbe, parasite or virus in culture; type: cell-based; conditions: multiple values = two or more tests; for MIC: Bacillus subtilis, read-out: Minimal Inhibitory Concentration (MIC), B. subtilis
[10] = tested on: Bacillus anthracis Sterne 34F2; test: microbe, parasite or virus in culture; type: cell-based; conditions: for MIC: Bacillus anthracis
[11] = tested on: rabbit primary renal cells (RPRC); test: Cytotoxicity in rabbit primary renal cells (annexin V / PI flow cytometry); type: cell-based; conditions: 24 hr, mean ± SEM; for % CELLULAR NECROSIS (RPRC): at 300 μM; for % APOPTOSIS (RPRC): at peak effect (30 μM)
Method: Cytotoxicity in Rabbit Primary Renal Cells
Isolation of Proximal Tubules and Culture Conditions
Rabbit renal proximal tubules were isolated using the iron oxide perfusion method and grown in 35-mm tissue culture dishes under improved conditions. The cell culture medium was a 1:1 mixture of DMEM/Ham's F-12 (without D-glucose, phenol red, or sodium pyruvate) supplemented with 15 mM HEPES buffer, 2.5 mM L-gluatmine, 1 μM pyridoxine HCL, 15 mM sodium bicarbonate, and 6 mM lactate. Hydrocortisone (50 nM), selenium (5 ng/mL), human transferrin (5 μg/mL), bovine insulin (10 nM) and L-ascorbic acid-2-phosphate (50 μM) were added to fresh culture medium immediately prior to daily media change.
All numbered compounds were diluted in methanol and the final concentration of methanol in RPRC was less then 0.1% (v/v).
Measurement of RPRC Death
Cell death was monitored in RPRC by assessment of both annexin V and PI staining using flow cytometry. Briefly, RPRC were exposed to the indicated concentrations of compounds for 24 hr. Media was removed and RPRC washed twice with phosphate-buffered saline (PBS) and incubated in a binding buffer (10 mM HEPES, 140 mM NaCL, 5 mM KCL, 1 mM MgCl2, 1.8 mM CaCl2, pH=7.4) containing annexin V-FITC (1 μmol) and PI (25 μg/mL). After a 10 min incubation, RPRC were washed three times in the binding buffer and were released from the monolayers by gentle scrapping with a rubber policeman. Annexin V and PI staining were measured using a BectonDickson FacsCalibur flow cytometer (San Jose, Calif.). An equal number of cells (10,000) were counted for sample and apoptotic cells were defined as those that stained positive for annexin V-FITC only. RPRC undergoing necrotic cell death stained for PI only.
RPRC isolated from one rabbit represented one experiment (n=1). Data were analyzed and are reported as means±standard error of the mean of at least 3 separate experiments.

[12] = STERNE34F2, read-out: approximate MIC, B. anthracis (first value)
[13] = STERNE34F2, read-out: approximate MIC, B. anthracis (second value)

C[N+](C)(C)[C@@H](Cc1ccccc1)C(=O)NCCCCCCCCn1ccc2cc(OCc3ccccc3)ccc21.[I-] [Compound 1447]
Potency to inhibit growth, C. albicans (MIC) [1]: < 6.25 µg/mL and < 3.13 µg/mL
Minimal Inhibitory Concentration (MIC), M. flavescens [2]: <6.25 µg/mL
Minimal Inhibitory Concentration (MIC), S. aureus (MCR) [3]: <1.56; μg/mL and <1.56 μg/mL
Potency to inhibit growth, A. niger (MIC) [4]: >50; >50 μg/mL
pIC50 [5]: 4.66
Minimal Inhibitory Concentration (MIC), S. aureus [6]: <1.56; μg/mL and <0.78 μg/mL
Potency to inhibit growth, P aeruginosa (MIC) [7]: >50; >50 μg/mL
Potency to inhibit growth, E. coli (MIC) [8]: >50: <50 μg/mL
Minimal Inhibitory Concentration (MIC), B. subtilis [9]: <1.56 µg/mL and <0.78 µg/mL

Cl.N=C(N)N[C@H](COCCCCCCCCOc1ccc(OCc2ccccc2)cc1)Cc1ccccc1 [Compound 1685]
approximate MIC, B. anthracis (first value) ([10]; first value of cell, standard broth dilution assay using bacterial growth media (order assumed)): 4; 4 μg/mL
approximate MIC, B. anthracis (second value) ([10]; second value of cell, visual turbidity, bacteria cultured in mammalian cell culture media (order assumed)): 4; 4 μg/mL
Minimal Inhibitory Concentration (MIC), S. aureus (MCR) [3]: <0.78 µg/mL
pIC50 [5]: 5.00
Minimal Inhibitory Concentration (MIC), B. subtilis [9]: <3.13 µg/mL

CC1(C)S[C@@H]2[C@H](NC(=O)[C@H](N)c3ccccc3)C(=O)N2[C@H]1C(=O)O [Ampicillin, reference compound]
MIC [3]: > 50 µg/mL

COc1cccc(COc2ccc(OCCCCCCCCNC(=O)[C@H](Cc3ccccc3)[N+](C)(C)C)cc2)c1.[I-] [Compound 1423]
Potency to inhibit growth, C. albicans (MIC) [1]: <3.13 µg/mL
Minimal Inhibitory Concentration (MIC), S. aureus (MCR) [3]: <1.56 µg/mL
Potency to inhibit growth, A. niger (MIC) [4]: <50 µg/mL
pIC50 [5]: 4.48
Minimal Inhibitory Concentration (MIC), S. aureus [6]: <1.56 µg/mL
Potency to inhibit growth, P aeruginosa (MIC) [7]: >50 µg/mL
Potency to inhibit growth, E. coli (MIC) [8]: >50 µg/mL
Minimal Inhibitory Concentration (MIC), B. subtilis [9]: <0.20 µg/mL

C[N+](C)(C)C.[I-] [TMAI, tetramethylammonium iodide, reference compound]
% CELLULAR NECROSIS (RPRC) [11]: 2 ± 1%
% APOPTOSIS (RPRC) [11]: 5 ± 1%

CN(C)c1ccc(C(=O)Oc2ccc(OCCCCCCCCOC(=O)C(Cc3ccccc3)[N+](C)(C)C)cc2)cc1 (stereo not drawn) [Compound 1484]
MIC [3]: < 0.78 µg/mL
pIC50 [5]: 4.83
MIC [9]: < 3.13 µg/mL

C[C@H]1c2cccc(O)c2C(=O)C2=C(O)[C@]3(O)C(=O)C(C(N)=O)=C(O)[C@@H](N(C)C)[C@@H]3[C@@H](O)[C@@H]21 [Doxycycline, reference compound]
MIC [3]: < 30 µg/mL
MIC ([6]; Staphylococcus aureus, read-out: Minimal Inhibitory Concentration (MIC), S. aureus): < 1.56 µg/mL
MIC ([7]; Pseudomonas aeruginosa, read-out: Potency to inhibit growth, P aeruginosa (MIC)): < 30 µg/mL
MIC ([8]; Escherichia coli, read-out: Potency to inhibit growth, E. coli (MIC)): < 1.56 µg/mL
MIC [9]: < 1.56 µg/mL

C[N+](C)(C)C(Cc1ccccc1)C(=O)NCCCCCCCCOc1ccc(OC(=O)c2cccc(Cl)c2)cc1 (stereo not drawn) [Compound 1594]
MIC [10, 12]: 8 µg/mL
MIC [10, 13]: 32 µg/mL
MIC [3]: < 6.25 µg/mL
pIC50 [5]: 4.60
% CELLULAR NECROSIS (RPRC) [11]: 29 ± 4%
% APOPTOSIS (RPRC) [11]: 13 ± 2%
MIC [9]: > 50 µg/mL

O=C(O)c1cn(C2CC2)c2cc(N3CCNCC3)c(F)cc2c1=O [Ciprofloxacin, reference compound]
MIC [10, 12]: 0.25 µg/mL (≈ 0.754 µM)
MIC [10, 13]: 0.125 µg/mL (≈ 0.377 µM)
% CELLULAR NECROSIS (RPRC) [11]: 4 ± 1%
% APOPTOSIS (RPRC) [11]: 9 ± 3%

C[N+](C)(C)C(Cc1ccccc1)C(=O)OCCCCCCCCOc1ccc(OCc2cccc(Cl)c2)cc1.[I-] (stereo not drawn) [Compound 1391]
Minimal Inhibitory Concentration (MIC), S. aureus (MCR) [3]: <1.56 µg/mL
pIC50 [5]: 4.94
Minimal Inhibitory Concentration (MIC), B. subtilis [9]: <3.13 µg/mL

C[N+](C)(C)C(Cc1ccccc1)C(=O)OCCCCCCCCOc1ccc2c(c1)C(=O)CC(c1ccccc1)O2 (mixture of isomers) [Compound 1370]
pIC50 [5]: 4.77

C[N+](C)(C)C(Cc1ccccc1)C(=O)NCCCCCCCCOc1ccc(OC(=O)c2ccc(Cl)cc2Cl)cc1 (stereo not drawn) [Compound 1604]
pIC50 [5]: 4.68

N=C(N)N[C@H](COCCCCCCCCOc1ccc(OCc2ccccc2)cc1)Cc1ccccc1 [Compound 1680]
pIC50 [5]: 5.00

C[n+]1cccc(C(=O)NCCCCCCCCOc2ccc(OC(=O)c3cc(Cl)ccc3Cl)cc2)c1 [Compound 1663]
pIC50 [5]: 4.74

Reference: patent US6861448B2, “NAD synthetase inhibitors and uses thereof” (priority 1998, dated 2005)
